Data taken from patent publication US20260306527A1, “PRMT INHIBITOR COMPOUNDS AND THE USES THEREOF” (Purdue Research Foundation, priority 2023, published 2026).
Where two headings read alike, the source gives them in different places.

Assays:
Format in all cases: biochemical
[1] = molecular target: PRMT3 (Homo sapiens, UniProt O60678); assay: SAHH-coupled fluorescence assay, inhibition of PRMT3; design: PRMT3 (residues 211-531) was cloned into the pET28a-MHL expression vector; tag of the pET28a-MHL vector (not described); made in house; host or cells: Escherichia coli BL21(DE3)
Summary of the method: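 Coupled SAHH/ThioGlo4 fluorescence read-out (ex 380 nm, em 505 nm) of PRMT3 (0.25 μM) methylation with 30 μM AdoMet and 5 μM SAHH. Buffer was 20 mM Tris pH 7.5 with 0.01% Triton X-100. Run in duplicate.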

[2] = molecular target: PRMT8 (Homo sapiens, UniProt Q9NR22); assay: radioactive assay (Reaction Biology Corp.), inhibition of PRMT8
Method: (§1) Next, the inhibition activity of the library was investigated for five PRMT members from type I PRMTs.
(§2) The PRMT 4, 6 and 8 methylation assays were performed by Reaction Biology corp.

[3] = molecular target: T1, PRMT4 (Homo sapiens, UniProt Q86X55); assay: radioactive assay (Reaction Biology Corp.), inhibition of PRMT4
T1 sequence (Q86X55 1-608): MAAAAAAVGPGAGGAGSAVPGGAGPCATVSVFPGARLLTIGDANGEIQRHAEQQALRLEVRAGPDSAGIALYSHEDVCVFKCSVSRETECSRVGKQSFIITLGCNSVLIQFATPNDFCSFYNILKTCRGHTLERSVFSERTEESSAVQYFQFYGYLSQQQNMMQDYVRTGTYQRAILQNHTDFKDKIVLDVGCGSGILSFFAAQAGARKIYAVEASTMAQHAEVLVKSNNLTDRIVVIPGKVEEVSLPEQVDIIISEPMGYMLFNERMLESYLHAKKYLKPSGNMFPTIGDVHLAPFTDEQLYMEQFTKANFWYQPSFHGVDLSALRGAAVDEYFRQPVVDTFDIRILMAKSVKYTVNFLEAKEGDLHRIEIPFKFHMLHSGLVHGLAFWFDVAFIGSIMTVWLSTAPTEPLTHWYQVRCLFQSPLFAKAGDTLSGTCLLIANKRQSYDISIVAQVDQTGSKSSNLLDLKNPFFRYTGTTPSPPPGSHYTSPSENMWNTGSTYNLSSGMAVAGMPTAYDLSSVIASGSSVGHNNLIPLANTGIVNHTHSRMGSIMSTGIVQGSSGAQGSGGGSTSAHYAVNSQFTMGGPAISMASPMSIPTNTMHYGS
Method: as §1, §2

[4] = system: PRMT3; assay: SAHH-coupled fluorescence assay, inhibition of PRMT3
Method: A fluorescence-based SAHH-coupled assay was applied to study the inhibition activity of all synthesized compounds on PRMT 1 and 3.
(§3) The PRMT3 methylation assay was performed under the following conditions in a final well volume of 100 μL: 20 mM Tris (pH=7.5), 0.01% Triton X-100, 5 μM SAHH, 0.25 μM PRMT3, 30 μM AdoMet, and 15 μM ThioGlo4. […] Fluorescence was monitored on a BMG CLARIOstar microplate reader with excitation 380 nm and emission 505 nm. Data were processed by using GraphPad Prism software 8.0. All experiments were performed in duplicate.
as §1
as §3, with “8.0.” for “8.0. All experiments were performed in duplicate.”

[5] = molecular target: T2, PRMT1 (Homo sapiens, UniProt Q99873); assay: SAHH-coupled fluorescence assay, inhibition of PRMT1
T2 construct: made in house
Summary of the method: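 PRMT1 (0.1 μM) was run with 10 μM AdoMet, 5 μM SAHH and 10 μM ThioGlo4 in 2.5 mM HEPES pH 7.0, 25 mM NaCl, 25 μM EDTA, 50 μM TCEP and 0.01% Triton X-100. Fluorescence (ex 400/em 465 nm) was monitored for 15 min. Assays were done in duplicate.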

[6] = molecular target: PRMT6 (Homo sapiens, UniProt Q96LA8); assay: radioactive assay (Reaction Biology Corp.), inhibition of PRMT6; conditions: for PRMT6 inhibition: 10 μM
Method: as §1, §2

T2 sequence (Q99873 whole entry, species assumed): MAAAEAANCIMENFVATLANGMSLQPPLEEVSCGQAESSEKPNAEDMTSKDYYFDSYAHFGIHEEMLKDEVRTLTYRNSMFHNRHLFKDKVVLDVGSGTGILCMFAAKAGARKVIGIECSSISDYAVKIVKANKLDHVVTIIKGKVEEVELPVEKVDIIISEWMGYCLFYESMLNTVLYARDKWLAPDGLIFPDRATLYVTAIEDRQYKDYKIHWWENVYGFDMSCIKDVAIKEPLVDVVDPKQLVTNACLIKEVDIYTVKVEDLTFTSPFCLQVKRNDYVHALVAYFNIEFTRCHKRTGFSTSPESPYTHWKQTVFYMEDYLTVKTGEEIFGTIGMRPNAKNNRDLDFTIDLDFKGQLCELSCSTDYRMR
Chain of PRMT8 (Q9NR22 whole entry, species assumed): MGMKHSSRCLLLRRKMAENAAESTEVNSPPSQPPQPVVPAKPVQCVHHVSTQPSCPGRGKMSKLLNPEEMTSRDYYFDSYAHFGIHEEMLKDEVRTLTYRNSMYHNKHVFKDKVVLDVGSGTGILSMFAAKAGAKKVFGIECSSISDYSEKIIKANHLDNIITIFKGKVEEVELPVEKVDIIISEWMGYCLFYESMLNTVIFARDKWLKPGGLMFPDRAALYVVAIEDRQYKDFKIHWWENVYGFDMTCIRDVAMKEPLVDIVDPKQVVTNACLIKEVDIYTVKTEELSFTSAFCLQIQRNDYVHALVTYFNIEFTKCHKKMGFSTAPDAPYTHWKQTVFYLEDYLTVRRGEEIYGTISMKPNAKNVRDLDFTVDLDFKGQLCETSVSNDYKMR
Chain of PRMT6 (Q96LA8 whole entry, species assumed): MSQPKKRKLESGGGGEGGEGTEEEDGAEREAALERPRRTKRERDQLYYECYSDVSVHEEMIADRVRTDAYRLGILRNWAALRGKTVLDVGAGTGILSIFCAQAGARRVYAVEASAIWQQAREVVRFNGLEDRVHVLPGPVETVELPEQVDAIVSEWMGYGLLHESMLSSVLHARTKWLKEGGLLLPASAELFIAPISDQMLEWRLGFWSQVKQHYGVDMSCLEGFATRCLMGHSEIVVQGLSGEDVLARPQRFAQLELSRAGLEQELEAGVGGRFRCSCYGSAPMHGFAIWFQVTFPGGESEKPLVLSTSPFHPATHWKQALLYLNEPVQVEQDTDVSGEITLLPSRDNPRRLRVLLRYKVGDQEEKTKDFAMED
Chain of PRMT3 (Homo sapiens, UniProt O60678) (O60678 211-531): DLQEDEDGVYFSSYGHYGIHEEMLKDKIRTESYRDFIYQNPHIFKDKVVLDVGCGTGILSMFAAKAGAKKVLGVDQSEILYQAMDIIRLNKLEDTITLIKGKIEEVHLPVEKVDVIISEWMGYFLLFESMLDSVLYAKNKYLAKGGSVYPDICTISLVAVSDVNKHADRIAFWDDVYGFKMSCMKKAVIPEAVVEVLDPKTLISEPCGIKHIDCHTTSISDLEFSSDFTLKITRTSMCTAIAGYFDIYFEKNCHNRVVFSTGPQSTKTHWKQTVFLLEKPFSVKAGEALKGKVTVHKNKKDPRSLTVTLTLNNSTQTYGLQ

inhibition at 10 µM [1] [%]	fold reduction of PRMT3 inhibition vs 1i ([1]; vs 1i) [fold]	inhibition at 10 µM [2] [%]	inhibition at 10 µM [3] [%]	IC50 ([4]; read-out: IC50 [µM] | PRMT3) [µM]	inhibition at 10 µM [5] [%]	inhibition at 10 µM [6] [%]	fold reduction of PRMT3 inhibition vs YD1113 ([1]; vs YD1113) [fold]	PRMT6 inhibition [6]	IC50 ([4]; read-out: IC50[μM] | PRMT3) [µM]	IC50 ([5]; read-out: IC50[μM] | PRMT1) [µM]	IC50 ([5]; read-out: IC50 FOR PRMT1) [µM]	SMILES
30	10	-1	67	22 ± 2.9	7	2	–	–	–	–	–	Nc1ncnc2c1ncn2[C@@H]1O[C@H](CSCCNC(=O)Nc2ccc(Cl)cc2)[C@@H](O)[C@H]1O [Compound 7k, 1-(2-((((2S,3S,4R,5R)-5-(6-amino-9H-purin-9-yl)-3,4-dihydroxytetrahydrofuran-2-yl)methyl)thio)ethyl)-3-(4-chlorophenyl)urea]
78	–	1	88	2 ± 0.23	17	17	4	inactive to PRMT6	–	–	–	Nc1ncnc2c1ncn2[C@@H]1O[C@H](CSCCNC(=O)Nc2ccc(F)cc2)[C@@H](O)[C@H]1O [Compound 7j, 1-(2-((((2S,3S,4R,5R)-5-(6-amino-9H-purin-9-yl)-3,4-dihydroxytetrahydrofuran-2-yl)methyl)thio)ethyl)-3-(4-fluorophenyl)urea]
50	–	99	100	–	97	96	–	–	6.6 ± 2.8	0.33 ± 0.072	–	N=C(NCCCSC[C@H]1O[C@@H](n2cnc3c(N)ncnc32)[C@H](O)[C@@H]1O)Nc1cccc(-c2ccc(F)cc2F)c1 [Compound 6k]
45	–	99	100	–	96	97	–	–	4.7 ± 0.83	0.26 ± 0.057	–	N=C(NCCCSC[C@H]1O[C@@H](n2cnc3c(N)ncnc32)[C@H](O)[C@@H]1O)Nc1cccc(-c2cccc(F)c2)c1 [Compound 6j]
61	–	100	100	–	91	99	–	–	4.2 ± 0.61	0.35 ± 0.073	–	N=C(NCCCSC[C@H]1O[C@@H](n2cnc3c(N)ncnc32)[C@H](O)[C@@H]1O)Nc1cccc(-c2ccc(F)nc2)c1 [Compound 6n]
64	–	99	100	–	87	98	–	–	3.2 ± 0.47	0.21 ± 0.023	–	N=C(NCCCSC[C@H]1O[C@@H](n2cnc3c(N)ncnc32)[C@H](O)[C@@H]1O)Nc1cccc(-c2ccc3c(c2)OCCO3)c1 [Compound 6g]
10	–	83	44	–	89	89	–	–	–	–	0.48 ± 0.079	N=C(NCCCSC[C@H]1O[C@@H](n2cnc3c(NCCCc4ccccc4)ncnc32)[C@H](O)[C@@H]1O)NCc1ccccc1 [Compound 19k]
2	–	86	54	–	83	92	–	–	–	–	0.46 ± 0.074	N=C(NCCCSC[C@H]1O[C@@H](n2cnc3c(NCCCc4ccccc4)ncnc32)[C@H](O)[C@@H]1O)Nc1ccccc1 [Compound 19j]
5	–	37	43	–	3	19	–	–	–	–	–	COc1cc2nc(-c3ccc(C(F)(F)F)cc3)nc(NCCSC[C@H]3O[C@@H](n4cnc5c(N)ncnc54)[C@H](O)[C@@H]3O)c2cc1OC [Compound 12e]
6	–	20	13	–	8	20	–	–	–	–	–	Nc1ncnc2c1ncn2[C@@H]1O[C@H](CSCCOc2ccc(-c3ccc(O)cc3)cc2)[C@@H](O)[C@H]1O [Compound 14b]
13	–	22	-4	–	2	91	–	selective inhibition to PRMT6	–	–	–	COc1cc2nc(-c3ccc(O)cc3)nc(NCCSC[C@H]3O[C@@H](n4cnc5c(N)ncnc54)[C@H](O)[C@@H]3O)c2cc1OC [Compound 12b]
